PubChem BioAssay (NCI)
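Assay format: 96-well plates, 48-hour exposure. Abbreviation: GI50, concentration required for 50% inhibition of growth. TGI is the concentration that stops growth completely.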

Columns and labels:
Experiment in all cases: growth of human tumour cells (NCI), 48 h
DU-145 prostate = test system: DU-145 prostate
MALME-3M melanoma = test system: MALME-3M melanoma
NCI-H226 lung = test system: NCI-H226 lung
OVCAR-8 ovarian = test system: OVCAR-8 ovarian
SF-539 CNS = test system: SF-539 CNS
SK-MEL-5 melanoma = test system: SK-MEL-5 melanoma
UACC-62 melanoma = test system: UACC-62 melanoma
MDA-MB-231 breast = test system: MDA-MB-231 breast

| SMILES | TGI (DU-145 prostate) [µM] | TGI (MALME-3M melanoma) [µM] | TGI (NCI-H226 lung) [µM] | TGI (OVCAR-8 ovarian) [µM] | TGI (SF-539 CNS) [µM] | TGI (SK-MEL-5 melanoma) [µM] | TGI (UACC-62 melanoma) [µM] | TGI (MDA-MB-231 breast) [µM] | GI50 (OVCAR-8 ovarian) [nM] | GI50 (SF-539 CNS) [nM] | GI50 (SK-MEL-5 melanoma) [nM] |
| --- | --- | --- | --- | --- | --- | --- | --- | --- | --- | --- | --- |
| c1ccc2cc3c(cc2c1)nc1ccccn13 | > 100 | > 100 | > 100 | > 100 | > 100 | > 100 | > 100 |  |  |  |  |
| COc1ccccc1CNC(=O)[C@H](Cc1ccc(O)cn1)NC(C)=O | > 100 | > 100 | > 100 |  | > 100 | > 100 | > 100 |  |  |  |  |
| C=CCn1c(-c2ccc(-c3cs/c(=N\N=O)n3CC=C)cc2)cs/c1=N\N=O | > 100 | > 100 | > 100 | > 100 | > 100 | > 100 | > 100 | 69.3 |  |  |  |
| C[C@]12CC[C@H](O)CC1=CC[C@@H]1C2CC[C@]2(C)Nc3c(cnn3-c3ccc(F)cc3)CC12 (stereo not given in full) | > 100 | > 100 | > 92.7 | > 100 | 4.44 | > 100 | > 100 | > 100 |  |  |  |
| CC(C)C(NCc1c(O)ccc2c(-c3ccccc3)cc(=O)oc12)C(=O)O (stereo not given) | > 100 | > 100 | > 100 | > 100 | > 100 | > 100 | > 100 | > 100 |  |  |  |
| CCc1n[nH]c(=O)n1CCO | > 100 |  | > 100 | > 100 | > 100 | > 100 | > 100 | > 100 |  |  |  |
| COc1ccc(CCNC(=O)[C@H]2CCCC[C@@H]2CCO)cc1OC | > 100 |  | > 100 | > 100 | > 100 | > 100 | > 100 | > 100 |  |  |  |
| O=c1oc2ccc([N+](=O)[O-])cc2c(Nc2ccc3c(c2)S(=O)(=O)c2ccccc2O3)c1[N+](=O)[O-] | > 100 | > 100 | 96.8 | > 100 | > 100 | > 100 | > 100 | > 100 |  |  |  |
| COP(=O)(OC)/C(=C\c1cn(C(c2ccccc2)(c2ccccc2)c2ccccc2)cn1)NC(C)=O | > 100 | > 100 | > 100 | > 100 | > 100 |  | > 100 | > 100 |  |  |  |
| N#Cc1nc(COCCOCc2ccc(F)cc2)oc1N | > 100 |  | > 100 | > 100 | > 100 | > 100 | > 100 | > 100 |  |  |  |
| C/C(=N\Nc1nc2ccccc2s1)c1cc(C)ncn1 | 45.1 | > 36.1 | 4.46 | 4.01 | 35 | 13 | > 32.8 | 9.47 |  |  |  |
| Cc1nc2c(=O)n3c4c(cccc4c2o1)CCC3 | > 100 | > 100 | > 100 | > 100 | > 100 | > 100 | > 100 | > 100 |  |  |  |
| CC(=O)OCC(Br)C1(C)CCC(C(C)(C)Br)O1 (stereo not given) | > 100 | > 100 | > 100 |  | > 100 | > 100 |  | > 100 |  |  |  |
| O=C(/C=C(\O)c1ccccc1)c1cc(-c2ccccc2)n(-c2ccccc2)n1 | > 100 | 45.5 | 25.2 | 15.3 | 72.3 | 48.7 | 13.4 | 64.4 |  |  |  |
| O=c1ccn(C2OC(CN(O)CCC3C(CO)OC(n4ccc(=O)[nH]c4=O)C3O)C(O)C2O)c(=O)[nH]1 (stereo not given) | > 100 | > 100 | > 100 | > 100 |  | > 100 | > 100 | > 100 |  |  |  |
| N#Cc1sc2c(c1O)c(=O)n(-c1ccccc1)c(=S)n2-c1ccccc1 | > 100 | > 100 | > 100 | > 100 |  | > 100 | > 100 | > 100 |  |  |  |
| Nc1nc(N)c2nc(CNc3ccc(C(=O)NC(CCCCNC(=O)c4ccccc4C(=O)O)C(=O)O)cc3)cnc2n1 (stereo not given) | > 100 | > 100 | > 100 | > 100 |  | > 100 | > 100 | > 100 | 5.9 | 26 | 91.3 |
| CCOC(=O)c1c(N2CCCC2)[nH]c(=O)c(C(c2cccs2)c2c(O)c(C(=O)OCC)c(N3CCCC3)[nH]c2=O)c1O | > 100 | > 100 | > 100 | > 100 | > 100 | > 100 | > 100 | > 100 |  |  |  |
| O=C1c2ccccc2C(=O)c2oc(Br)cc21 | 0.491 | 0.274 | 3.22 | 2.92 | 1.84 | 0.284 | 1.84 | 7.32 |  |  |  |
| CN(C)Cc1cc(N=Nc2ccc(Cl)cc2)ccc1OC(=O)c1ccccc1 | 30.7 | 31 | 54.3 | 34.4 | 34.5 | 28.8 |  | 28.6 |  |  |  |
| Cc1cccc2c(=O)c3cccc([C@@H](C)C(=O)O)c3oc12 | > 100 |  | > 100 | > 100 | > 100 | > 100 |  | > 100 |  |  |  |
| CCCC[C@H]1CCN2C[C@@H](O)[C@@H](O)[C@H]2[C@@H]1O | > 100 | > 100 | > 100 | > 100 | > 100 | > 100 | > 100 | > 100 |  |  |  |
| COc1ccc(CCc2nccn2C)cc1OC |  | > 100 |  | > 100 | > 100 | > 100 | > 100 |  |  |  |  |
| Cc1c(C)c(S(=O)(=O)N(CCCCCON)OCCCN)c(C)c2c1OC(C)(C)CC2 | 17.5 | 27.4 | 36.7 | 23.9 | 28.5 | 29.5 | 27.4 | 30.4 |  |  |  |
| CC(C)C(NC(=O)C(Cc1ccccc1)NC(=O)[C@H]1CCC[C@H]1NC(=O)C(N)Cc1ccc(O)cc1)C(N)=O (stereo not given in full) | > 100 | > 100 | > 100 | > 100 | > 100 | > 100 | > 100 | > 100 |  |  |  |
